row,Compound,melting point
1,N=C(Nc1cccc(NC(=O)/C=C/c2ccccc2Cl)c1)c1ccccc1,262 to 264 °C
2,CCOc1ccc(C2=NN(c3ccc(C(=O)N4CCN(c5nc(-c6ccccc6)ns5)CC4)cc3)C(=O)[C@@H]3CC=CC[C@H]23)cc1OCC,168 to 169 °C
3,OC(CCCN1CC=C(c2ccccc2)CC1)c1ccc(F)cc1 (stereo not given),116 to 117 °C
4,C=CCOc1ccc2c(C)cc(=O)oc2c1,110 °C
5,O=S(=O)(Cc1ccccc1)N(c1ncc(-c2ccccc2)nc1Cc1ccccc1)S(=O)(=O)Cc1ccccc1,71.5 to 74.5 °C
6,CN1CCN(C(=O)N2CCN(C(=O)OC(C)(C)C)CC2)CC1,130 °C
7,O=C1OC(CN2CCC3(CC2)C(=O)NCN3c2ccccc2)CN1c1ccccc1 (stereo not given),166 to 168 °C
8,N#Cc1c(Br)[nH]c(-c2ccccc2)c1C#N,225 to 258 °C
9,CCOP(=O)(OCC)c1c(-c2c(OC)ccc3ccccc23)cc2c(c1-c1ccccc1)COC2,123 to 125 °C
10,CC(C(=O)O)c1ccc2cc(OCC=C(Cl)Cl)ccc2c1 (stereo not given),107 to 109 °C
11,COc1cc2c(cc1OC)CN(CCCOc1ccc(NC(=O)c3nccc4ccccc34)cc1)CC2,160 °C
12,CCOP(=O)(Cc1c(C)cc(O)cc1C1CCCCC1)OCC,73 °C
13,COc1ccc(/C=C/C(=O)C2C(=O)CC(c3ccc(OC)cc3)C([N+](=O)[O-])C2C=Cc2ccccc2)cc1 (stereo not given),88 to 90 °C
14,CC1(C)CCC(C)(C)c2cc(C(=O)CNc3ccc(C(=O)O)cc3)ccc21,168 to 169 °C
15,Cc1c(C)c(O)c(CCC(C)(O)COc2ccc(CC3SC(=O)NC3=O)cc2)c(C)c1O (stereo not given),84 to 88 °C
16,CC[C@@H](Cc1ccc(OC)c(C(=O)NCc2ccccc2Oc2ccc(F)cc2)c1)C(=O)O,95 to 96 °C
17,CN1C(=O)CN=C(c2ccccc2F)c2cc(NC(=O)N3CCSC3)ccc21,185 °C
18,CCCCCCNP(N)(N)=S,65 to 70 °C
19,CCOC(=O)CN1C(=O)c2cccc3cccc(c23)C1=O,160 to 162 °C
20,CON=C(C(N)=O)c1cnccn1,188 to 190 °C
21,Cc1ccc(-c2ccc(C#N)cc2)cc1,107 to 109 °C
22,CCN(CC)C(=O)Oc1nc(-c2ccccc2)cc2ccccc12,81 °C
23,O=C1C(c2ccccc2)=C(c2ccccc2)C(=O)N1c1ccccc1C(F)(F)F,152 to 153 °C
24,O=C(c1ccccc1F)c1cc(Cl)ccc1C#CCN1C(=O)c2ccccc2C1=O,158 to 161 °C
25,COC(=O)c1ccc(Br)cc1CSC,79.3 °C
26,CCOC(=O)C(=CNc1sc(Cl)cc1C(=O)OC)C(=O)OCC,89.5 to 90.5 °C

row,Compound,melting point
1,Clc1ccc2sc(=Nc3ccccc3)sc2c1,71 to 73 °C
2,Cc1ccsc1C(=O)N1CCC(Sc2ccc(CCNC[C@H](O)COc3ccc(O)cc3)cc2)CC1,135 to 144 °C
3,CCC(CC)Nc1c([N+](=O)[O-])cc(CC=NO)c(C(C)C)c1[N+](=O)[O-],114 to 115 °C
4,OC(CN1CCC(c2ccc(F)cc2)CC1)CN1CCC(c2ccc(F)cc2)CC1,79 to 80 °C
5,O=S1(=O)c2cccc3cccc(c23)N1CCN1CC=C(c2c[nH]c3ccccc23)CC1,208 °C
6,CCCCOCCOCCOc1ccc(-c2ccc(C(=O)O)cc2)cc1,174 to 176 °C
7,CC(=O)Oc1ccc2c(c1)Cc1cc(C(C)=O)ccc1-2,126 to 128 °C
8,CC(=O)c1ccc(OCC=C(C)CSCc2ccccc2)cc1,75 to 76.5 °C
9,COC(=O)c1ccc2cccc(OS(=O)(=O)C(F)(F)F)c2n1,77 to 78 °C
10,NC(=O)c1ccc(Nc2nc(N)nc(Cc3c(Cl)ccc4[nH]ccc34)n2)cc1,204 to 205 °C
11,COc1cccc2c(Nc3ccccc3C)c(C(C)=O)cnc12,171 to 173 °C
12,COC(=O)c1coc2ccc(OCc3ccccc3)cc2c1=O,88 to 89 °C
13,O=C(O)c1ccc2c(c1)C(=Cc1ccccc1)OC2=O,261 °C
14,COc1ccc(C(=O)NC(CC(C)C)C(=O)O)c(SSc2cc(OC)ccc2C(=O)NC(CC(C)C)C(=O)O)c1 (stereo not given),230 to 231 °C
15,CCCCCCCCCCCCCCCCCCCCCC(=O)NN,117 °C
16,CC(C)NC(=O)[C@@H]1CCCN1C(=O)[C@H](C)NC(=O)OCc1ccccc1,124 to 126 °C
17,COc1cccc(-c2cc(O)c(SCc3ccccc3)c(=O)o2)c1,146 to 147 °C
18,COc1ccc(-c2cc(C(O)C(F)(F)F)[nH]c2-c2ccc(OC)cc2)cc1 (stereo not given),84 to 86 °C
19,COc1ccc(-c2c(NCCc3cccc(C(F)(F)F)c3)c(=O)c2=O)cc1,220 to 222 °C
20,O=C(NC(Cc1ccc(OCc2ccccc2)cc1)C(=O)O)c1cn2cccc(OCc3ccc(Cl)cc3)c2n1 (stereo not given),210 °C
21,Cc1cccc(-c2[nH]c(C(C)C)nc2-c2cccc(-c3ccc(S(N)(=O)=O)cc3F)c2)n1,246 to 248 °C
22,CN(C)c1ccc(/C=C/c2ccc(F)cc2F)cc1,139 to 140 °C
23,CCCCc1oc2ccccc2c1C(=O)N(Cc1ccccc1)Cc1ccc(-c2ccc(OC)c(Br)c2)cc1,145 to 148 °C
24,COc1ccc(NC(=O)N(Cc2ccccc2)C2CCCCCC2)c(NC(=O)c2cc(C(C)(C)C)c(O)c(C(C)(C)C)c2)c1,125 to 130 °C
25,NC(=O)N(O)CC1CCCCC1,143 to 144 °C

# Other lines, results leading:
row,melting point,Compound
1,194 °C,Cc1ccc(C)c(C(=O)c2c(S(C)(=O)=O)nn(-c3c(Cl)cc(C(F)(F)F)cc3Cl)c2N)c1
2,108 to 111 °C,CN1C(=O)c2c(-c3ccccc3)noc2CC1c1ccccc1 (stereo not given)
3,208 to 209 °C,Cc1nc(-c2ccc(Br)cc2)n(-c2ccc(S(C)(=O)=O)cc2)n1
4,75 to 76 °C,CCN(CC)c1ccc([N+](=O)[O-])cn1
5,110 to 112 °C,CC1NC(c2ccc(Cl)cc2)=NO1 (stereo not given)
6,193 to 194 °C,CC1(C)C(=O)Nc2ccc(-c3ccc(C#N)o3)cc21
7,156 to 166 °C,COc1ccc2c(Cc3c(Cl)cncc3Cl)nnc(Cl)c2c1
8,165 to 169 °C,OCC#Cc1cc(Cl)cc2nc(-c3ccccc3Cl)oc12
9,169 to 173 °C,c1ccc2c(c1)CCC1C2=NNC1c1ccncc1 (stereo not given)
10,211 to 214 °C,CC(C)Oc1cccc2c1C1=NCCN1c1c(-c3noc(C4CC4)n3)ncn1-2
11,112 °C,Cn1cc(C2=NOCCO2)c(Cl)n1
12,300 °C,N[C@H]1CCN(c2cc3c(cc2F)c(=O)c(C(=O)O)cn3-c2c[nH]nn2)C1
13,249 to 253 °C,N#CC(C(=O)Nc1ccccc1)C(=O)c1nn(-c2ccccc2)c2c1COc1c(CN3CCOCC3)cc(F)cc1-2 (stereo not given)
14,214 °C,Cn1c(=O)n(SC(Cl)(Cl)Cl)n(-c2ccccc2)c1=O
15,150 to 151 °C,CN1CCC(O)(c2csc3ccccc23)CC1
16,77 to 78 °C,O=C1c2ccccc2C(=O)N1CCCCOc1ccccn1
17,237 to 238 °C,CCOC(=O)c1[nH]c(-c2ccc(Cl)cc2)nc1C
18,172 to 174 °C,Cn1c(C(F)(F)F)cc(=O)n(-c2cc(C=O)c(Cl)cc2F)c1=O
19,210 to 215 °C,COc1cc2oc(=O)c3c(c2cc1NC(C)=O)CCN(CC(C)=O)C3
20,189 to 190 °C,O=c1c2ccccc2ncn1NC(=S)Nc1ccc(Br)cc1
21,164 to 165 °C,CCCCc1cn(CCC)c(=O)n1Cc1ccc(-c2ccccc2-c2nnn[nH]2)nc1
22,261 to 263 °C,CCCOc1ccc(S(=O)(=O)Nc2ccc3[nH]ncc3c2)cc1-c1nc2cc(Cl)c([N+](=O)[O-])cc2c(=O)[nH]1
23,109 to 113 °C,CC1=NN(c2ccc(Cl)cc2)C(=O)C1C(=O)Nc1ccc(F)cc1 (stereo not given)
24,260 °C,CCCC1=C(C#N)C(c2ccccc2Cl)c2c(n[nH]c2C)N1 (stereo not given)
25,146 to 148 °C,CC(C)c1cc(CO)cc(C(C)C)c1NC(=O)CN1CCN(CCSc2nc3cccc(C(F)(F)F)c3o2)CC1

row,melting point,Compound
1,77 to 79 °C,CN1C(=O)N(CC2=C(CC3CCCC3)C(=O)OC2)C(=O)C1(C)C
2,266 °C,CCn1cc(C(=O)O)c(=O)c2cc(Br)c(N3CCOCC3)cc21
3,87 to 92 °C,COc1ccc(C(CNc2ncnc3c2ncn3C2OC(CO)C(O)C2O)c2ccccc2)cc1 (stereo not given)
4,59.5 to 62.5 °C,O=C1CCCSC1C(=O)c1ccc([N+](=O)[O-])cc1Cl (stereo not given)
5,128 to 129 °C,Fc1cccc(CSc2nnc(-c3ccc4c(c3)CCO4)o2)c1
6,207 to 210 °C,COC1CCc2c(cc(-c3ccccc3)n2-c2ccc(O)c(C(=O)O)c2)C1 (stereo not given)
7,56 to 58 °C,CCOC(=O)c1c(C)nc(OCC)c2nnn(CC)c12
8,255 to 257 °C,Cc1nccc2[nH]c(=O)c(C(=O)O)cc12
9,146 to 148 °C,OC1(c2cccc(Cl)c2)CCN(CCCc2nnc3n2CCCCC3)CC1
10,126 to 127 °C,Cc1c(NC(=O)CC(C)(C)C)cc2c(c1C)OC(C)(C)C2c1ccco1 (stereo not given)
11,137 to 140 °C,Cn1ncnc1COc1nc2c(cc1-c1cccc(F)c1)nnn2-c1c(F)cccc1F
12,180 to 182 °C,Cc1cc(F)cc(-c2ccc3c(c2)C2(C=N3)CCCCC2)c1
13,110 to 112 °C,CC12CC=C3C4=C(CCC3C1CCC2=O)CC1(CC4)OCCO1 (stereo not given)
14,211 to 212 °C,CCn1c(=O)sc2cc(N3C[C@H](C(N)=O)OC3=O)ccc21
15,75 to 77 °C,CCCCN1C(=O)c2cccc3c(SC)ccc1c23
16,139 to 140 °C,O=c1ccn(-c2cccc(C(F)(F)F)c2)nc1-c1ccnn1-c1ccccc1Cl
17,155 to 157 °C,O=C(O)Cc1ccc2c(c1)Cc1ccccc1CO2
18,78 to 79 °C,N#Cc1ccc(C2CCN(Cc3ccccc3)C2)cc1 (stereo not given)
19,91 to 92 °C,O=C1CCC(c2ccc(OCCBr)cc2)CC1
20,> 300 °C,CC1(C)CCC(C)(C)c2nc(C(=O)CBr)cnc21
21,132 °C,Cc1cc(-c2cscn2)ccc1-c1cc(C(F)(F)F)nn1-c1ccc(S(C)(=O)=O)c(F)c1
22,169 to 171 °C,CCC(CC)c1ccc(Cl)c2nc3n(c12)CCN3c1ccc(Cl)cc1Br
23,130 °C,O=[N+]([O-])c1ccc(O)c(CSCC(O)CO)c1 (stereo not given)
24,228 to 230 °C,CN(Cc1cccc2c1CN(C1CCC(=O)NC1=O)C2=O)C(=O)Nc1cc(F)cc(F)c1 (stereo not given)
